Laboratory results from paper PMC3734177, “Design, Synthesis, Evaluation and Thermodynamics of 1-Substituted Pyridylimidazo[1,5-a]Pyridine Derivatives as Cysteine Protease Inhibitors” (PLoS ONE, 2013).
Values after ≈ are worked out from the molar mass of the structure shown. Values joined by “and” are separate entries in the source; they are usually repeats but may differ in a detail not shown here. Identical values can stand only once. Like-named read-outs stand apart in the source and are kept apart here.

How the values were obtained:
papain [1] = target: T1, papain (Carica papaya, UniProt P00784); test: Cysteine protease inhibitory activity, papain with Bz-DL-Arg-pNA substrate; type: biochemical; conditions: for Type of inhibition: Lineweaver–Burk plot; for IC50: papain
T1 construct: To solutions of active papain (final concentration: 0.05 mM); purchased Sigma Chemical Co., St. Louis, MO, USA
T1 sequence (P00784 134-345): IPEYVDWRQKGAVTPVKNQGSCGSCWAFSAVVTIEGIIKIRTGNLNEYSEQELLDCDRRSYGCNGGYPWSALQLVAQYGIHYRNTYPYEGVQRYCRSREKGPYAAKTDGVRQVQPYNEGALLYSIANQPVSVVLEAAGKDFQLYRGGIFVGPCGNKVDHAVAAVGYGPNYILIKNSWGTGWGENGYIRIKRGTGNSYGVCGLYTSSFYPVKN
Description: The capacity of the 1-pyridylimidazo[1,5-a]pyridine derivatives to inhibit cysteine proteases was tested using papain as the model enzyme. The proteolytic activity of the reaction mixtures was determined using Bz-DL-Arg-pNA as the chromogenic substrate. To solutions of active papain (final concentration: 0.05 mM) were added concentrated solutions of the different derivatives to final concentrations of 0.2 mM. […] The same procedure was used at 32°C and 42°C for thermodynamics studies. The kinetic parameters for the substrate hydrolysis were determined by measuring the initial rate of enzymatic activity. The inhibition constant Ki was determined by Dixon method and also by the Lineweaver–Burk equation. The Km value was calculated from the double-reciprocal equation by fitting the data into the computer software Origin 6.1. The Lineweaver–Burk plot was used to determine the types of inhibition. For the kinetic analysis and rate constant determinations, the assays were carried out in triplicate, and the average value was considered throughout this work.

[2] = test system: Bacillus spp. (ATCC-14593); test: MBC, sub cultivation from MIC plate; type: cell-based; conditions: ATCC14593, Bacillus sp.
Description: (§1) After having determined the MICs, bacterial strains from the wells of the microtitre plate with no visible bacterial growth were removed for serial sub cultivation of 2 µl into another new microtitre plate containing 100 µl of broth per well and further incubated for 24 h. The lowest concentration with no visible growth was defined as MBC [28], indicating 99.5% killing of the original inoculum. The absorbance of each well was measured at a wavelength of 620 nm by Microplate Manager 4.0 (Bio-Rad laboratories) and compared with a blank. Solvent (DMSO) was used as a negative control. Three replicates were done for each compound and experiment was repeated two times.

[3] = test system: Staphylococcus aureus (ATCC-25923); test: MBC, sub cultivation from MIC plate; type: cell-based; conditions: ATCC25923, S. aureus
Description: as §1

[4] = test system: Group D Streptococci (ATCC-12959); test: MBC, sub cultivation from MIC plate; type: cell-based
Description: as §1

[5] = test system: Serratia morganii (ATCC- 31665); test: MBC, sub cultivation from MIC plate; type: cell-based
Description: as §1

[6] = test system: Proteus vulgaris (ATCC-29905); test: MBC, sub cultivation from MIC plate; type: cell-based; conditions: ATCC29905, P. vulgaris
Description: as §1

[7] = test system: Escherichia coli (ATCC-25922); test: MBC, sub cultivation from MIC plate; type: cell-based; conditions: ATCC25922, E. coli
Description: as §1

[8] = test system: Pseudomonas aeruginosa (ATCC-27853); test: MBC, sub cultivation from MIC plate; type: cell-based
Description: as §1

[9] = test system: Bacillus spp. (ATCC-14593); test: MIC, micro dilution method; type: cell-based; conditions: ATCC14593; Bacillus sp.
[10] = test system: Bacillus spp. (ATCC-14593); test: MIC, micro dilution method; type: cell-based; conditions: ATCC14593; Bacillus sp.; remark: listed apart in the source
Description: (§2) The disk diffusion method was used for the preliminary antibacterial evaluation of 1-pyridylimidazo[1,5-a]pyridine derivatives. The MIC50 of these derivatives, showing inhibition in the preliminary tests, were further determined by the microtitre plate technique using micro dilution method. In brief, the bacterial strains (S. aureus, P. vulgaris, Group D Streptococci, Bacillus sp., E. coli, P. aeruginosa and S. morganii)) were grown and diluted to 2×10^5 colony-forming units (CFU)/ml in sodium phosphate buffer (SPB) containing 0.03% Luria–Bertani (LB) broth. The synthesized derivatives were dissolved in DMSO and their serial dilution was performed in 50 µL of LB medium in 96-well microtitre plate to achieve the required concentrations (0.1–10 µg/ml) with bacterial inoculums (5×10^4 CFU per well). DMSO was taken as negative control and Ceftriaxone and clotrimazole were taken as positive control. After incubation at 37°C overnight, the MICs were taken as the lowest inhibitor concentration at which the bacterial growth was inhibited. The average of three values was calculated and that was the MIC for the test material and bacterial strain. […]

[11] = test system: Staphylococcus aureus (ATCC-25923); test: MIC, micro dilution method; type: cell-based; conditions: ATCC25923, S. aureus
Description: as §2

[12] = test system: Proteus vulgaris (ATCC-29905); test: MIC, micro dilution method; type: cell-based; conditions: ATCC29905, P. vulgaris
Description: as §2

[13] = test system: Escherichia coli (ATCC-25922); test: MIC, micro dilution method; type: cell-based; conditions: ATCC25922, E. coli
Description: as §2

[14] = test system: Pseudomonas aeruginosa (ATCC-27853); test: MIC, micro dilution method; type: cell-based; conditions: ATCC27853
Description: as §2

papain [15] = target: T1, papain; test: Thermodynamics analysis of papain inhibition (Van't Hoff); type: biochemical; conditions: Value at 37°C
Description: Free energy changes of inhibition of papain against 1- substituted pyridylimidazo[1,5-a] pyridine derivatives (ΔG) were determined by the equation, [drawing 1] (1)
Temperature dependence of the inhibition constants was used to determine the thermodynamic parameters. Changes in enthalpy (ΔH) were determined from the Van’t Hoff plots by using the equation, [drawing 2] (2)
Where ΔH is enthalpy change, R is gas constant, ΔS is entropy change and T is the absolute temperature. The entropy change was obtained from the equation, [drawing 3] (3)

[16] = test system: Group D Streptococci (ATCC-12959); test: MIC, micro dilution method; type: cell-based
Description: (§3) The disk diffusion method was used for the preliminary antibacterial evaluation of 1-pyridylimidazo[1,5-a]pyridine derivatives. The MIC50 of these derivatives, showing inhibition in the preliminary tests, were further determined by the microtitre plate technique using micro dilution method. In brief, the bacterial strains (S. aureus, P. vulgaris, Group D Streptococci, Bacillus sp., E. coli, P. aeruginosa and S. morganii)) were grown and diluted to 2×10^5 colony-forming units (CFU)/ml in sodium phosphate buffer (SPB) containing 0.03% Luria–Bertani (LB) broth. The synthesized derivatives were dissolved in DMSO and their serial dilution was performed in 50 µL of LB medium in 96-well microtitre plate to achieve the required concentrations (0.1–10 µg/ml) with bacterial inoculums (5×10^4 CFU per well). DMSO was taken as negative control and Ceftriaxone and clotrimazole were taken as positive control. After incubation at 37°C overnight, the MICs were taken as the lowest inhibitor concentration at which the bacterial growth was inhibited. The average of three values was calculated and that was the MIC for the test material and bacterial strain.
(§4) For the agar plate count method, 25 µL aliquots of bacteria at 1×10^5 CFU/ml in SPB containing 0.03% LB broth were incubated with 25 µL of diluted compounds for 2 h at 37°C. The mixtures of bacteria and compounds were serially diluted 10-fold with SPB and plated on LB plates that were incubated at 37°C overnight. Bacterial colonies were enumerated the following day.

[17] = test system: Serratia morganii (ATCC- 31665); test: MIC, micro dilution method; type: cell-based; conditions: ATCC31665
Description: as §3, §4

Row | Structure (SMILES) | Ki (papain [1]; 32°C) | Ki (papain [1]; 37°C) | Ki (papain [1]; 42°C) | Type of inhibition (papain [1]) | IC50 (papain [1]) | MBC ([2]; read-out: MBC50) | MBC ([2]; read-out: MBC90) | MBC ([3]; read-out: MBC50) | MBC ([3]; read-out: MBC90) | MBC ([4]; read-out: MBC50) | MBC ([4]; read-out: MBC90) | MBC ([5]; ATCC31665, read-out: MBC50) | MBC ([5]; ATCC31665, read-out: MBC90) | MBC ([6]; read-out: MBC50) | MBC ([6]; read-out: MBC90) | MBC ([7]; read-out: MBC50) | MBC ([7]; read-out: MBC90) | MBC ([8]; ATCC27853, read-out: MBC50) | MBC ([8]; ATCC27853, read-out: MBC90) | MIC90 [9] | further results
1 | Clc1ccccc1-c1nc(-c2ccccn2)c2ccccn12 [Compound 3c, 1-(2-pyridyl)-3-(2-chlorophenyl) imidazo[1,5-a]pyridine] | 94.1 µM | 90 µM | 85.6 µM | Non -Competitive | 94.5 µM | 1.9 µg/mL (≈ 6.21 µM) | 3.8 µg/mL (≈ 12.4 µM) | 2.4 µg/mL (≈ 7.85 µM) | 4.7 µg/mL (≈ 15.4 µM) | 1.8 µg/mL (≈ 5.89 µM) | 3.4 µg/mL (≈ 11.1 µM) | 2.1 µg/mL (≈ 6.87 µM) | 4.1 µg/mL (≈ 13.4 µM) | 2.2 µg/mL (≈ 7.19 µM) | 4.3 µg/mL (≈ 14.1 µM) | 1.2 µg/mL (≈ 3.92 µM) | 2.3 µg/mL (≈ 7.52 µM) | 2.4 µg/mL (≈ 7.85 µM) | 4 µg/mL (≈ 13.1 µM) | 1.7 µg/mL (≈ 5.56 µM) | MIC50 [10]: 0.9 µg/mL (≈ 2.94 µM); MIC50 [11]: 1.2 µg/mL (≈ 3.92 µM); MIC90 [11]: 2.4 µg/mL (≈ 7.85 µM); MIC50 [12]: 1 µg/mL (≈ 3.27 µM); MIC90 [12]: 1.9 µg/mL (≈ 6.21 µM); MIC50 [13]: 0.6 µg/mL (≈ 1.96 µM); MIC90 [13]: 1.1 µg/mL (≈ 3.6 µM); MIC50 [14]: 1.2 µg/mL (≈ 3.92 µM); MIC90 [14]: 2.2 µg/mL (≈ 7.19 µM); ΔG (free energy of binding) (papain [15]): −5.71 Kcalmol^−1 and −5.71(±0.27) Kcalmol^−1; ΔS (entropy change) (papain [15]): 69.88 (±2.65) Jmol-K^−1; MIC50 [16]: 0.9 µg/mL (≈ 2.94 µM); MIC90 [16]: 1.7 µg/mL (≈ 5.56 µM); MIC50 [17]: 1 µg/mL (≈ 3.27 µM); MIC90 [17]: 1.9 µg/mL (≈ 6.21 µM)
2 | CC(C)(C)c1cc(-c2nc(-c3ccccn3)c3ccccn23)cc(C(C)(C)C)c1O [Compound 3d, 1-(2-pyridyl)-3-(3,5-di-tert-butyl-4-hydroxyphenyl) imidazo[1,5-a]pyridine] | 110 µM | 99.3 µM | 89.2 µM | Non -Competitive | 96.5 µM | 2.5 µg/mL (≈ 6.26 µM) | 4.7 µg/mL (≈ 11.8 µM) | 2.6 µg/mL (≈ 6.51 µM) | 5.2 µg/mL (≈ 13 µM) | 2.3 µg/mL (≈ 5.76 µM) | 4.4 µg/mL (≈ 11 µM) | 2.4 µg/mL (≈ 6.01 µM) | 4.4 µg/mL (≈ 11 µM) | 1.7 µg/mL (≈ 4.25 µM) | 3.4 µg/mL (≈ 8.51 µM) | 2.5 µg/mL (≈ 6.26 µM) | 4.9 µg/mL (≈ 12.3 µM) | 2.4 µg/mL (≈ 6.01 µM) | 4.4 µg/mL (≈ 11 µM) | 2.6 µg/mL (≈ 6.51 µM) | MIC50 [10]: 1.4 µg/mL (≈ 3.5 µM); MIC50 [11]: 1.2 µg/mL (≈ 3 µM); MIC90 [11]: 2.3 µg/mL (≈ 5.76 µM); MIC50 [12]: 0.9 µg/mL (≈ 2.25 µM); MIC90 [12]: 1.7 µg/mL (≈ 4.25 µM); MIC50 [13]: 1.2 µg/mL (≈ 3 µM); MIC90 [13]: 2.3 µg/mL (≈ 5.76 µM); MIC50 [14]: 1.2 µg/mL (≈ 3 µM); MIC90 [14]: 2 µg/mL (≈ 5.01 µM); ΔG (free energy of binding) (papain [15]): −5.64 Kcalmol^−1 and −5.64(±0.24) Kcalmol^−1; ΔS (entropy change) (papain [15]): 59.73(±1.93) Jmol-K^−1; ΔH (enthalpy change) (papain [15]; Van't Hoff plot): −5.2 (±0.84) KJmol^−1; MIC50 [16]: 1 µg/mL (≈ 2.5 µM); MIC90 [16]: 1.9 µg/mL (≈ 4.76 µM); MIC50 [17]: 1.1 µg/mL (≈ 2.75 µM); MIC90 [17]: 2.1 µg/mL (≈ 5.26 µM)
